Results from EP3355943B1, “METHODS AND SYSTEMS FOR TREATING MEDICAL DEVICES AND FLUIDS” (Ethicon, Inc., priority 2015, dated 2017).
Read-outs that look alike come from different tables or passages of the source.

How the values were obtained:
[1] = Effect of storage (dwell time) on efficacy of pre-mixed CaSt suspensions, sonicated or vortexed; assay type: biochemical
Description: Efficacy of pre-mixed CaSt suspensions (sonicated and vortexed) was tested, comparing efficacy of immediately prepared suspensions with suspensions having shelf life or dwell time of 90 min, 5 days, and 1 month prior to contact with endotoxin containing solutions.
10 mL SRW was then introduced to the sonicated CaSt mixture. It was then vortexed for 5 seconds to fully incorporate the sonicated CaSt. The mixture was then tested after 15 minutes of interaction to measure the percent decrease of endotoxin.
10 mL SRW was then introduced to the vortexed CaSt mixture. It was then vortexed for 5 seconds to fully incorporate the sonicated CaSt. The mixture was then tested after 15 minutes of interaction to measure the percent decrease of endotoxin.
These mixtures were then tested on the Charles River MCS at a dilution of 1:2000 after 15 minutes of interaction.
Testing of suspensions having shelf life or dwell time of 90 min, 5 days, and 1 month prior to contact with endotoxin containing solutions.
Test samples were prepared as described above, sonicated and vortexed, but were subjected to shelf life or dwell time of 90 min, 5 days, and 1 month prior to contact with endotoxin containing solution (SRW). After dwell time exposure, similarly to the immediate mixing test above, 10 mL SRW was then introduced to the sonicated or vortexed CaSt mixture. It was then vortexed for 5 seconds to fully incorporate the sonicated CaSt. The mixture was then tested after 15 minutes of interaction to measure the percent decrease of endotoxin. These mixtures were then tested on the Charles River MCS at a dilution of 1:2000 after 15 minutes of interaction.
*The 1 month shelf life sample was only tested at 0.04g CaSt and measured the percent removal after 15 minutes of interaction as well as 30 minutes after interaction.

[2] = assay type: in vivo; settings: female rats, observed 4 days
Description: An animal study was conducted with 30 female rats with weights ranging from 250-300g and acclimated for 5 days. All rats were dosed with intraperitoneal injections using 18 gauge needles. The rats were broken into 6 groups. A negative control (NC-1) dosed 5 rats with 5mL of normal saline solution. […] A positive control (PC-1) dosed 5 rats with 2.5 million EU in a 5mL saline solution. A second positive control (PC-2) was conducted dosing 5 rats with 5 million endotoxin units in a 5mL normal saline solution. Two experimental test groups were conducted.
The negative control samples also had no toxicity. Table 21. Results of animal study with CaSt dosing

[3] = Wound dressing (fibrin pad) spiked with LPS, treated in cyclohexane containing CaSt; assay type: biochemical; settings: Tube 2: 10 mL cyclohexane with 0.1 g CaSt, 15 minutes rolling; for Endotoxin detected on Pad (EU): pad spiked 8.9 EU
Description: A wound dressing containing dry fibrinogen and dry thrombin on an absorbable support was tested as follows. The pad was spiked with LPS and then exposed to cyclohexane containing CaSt to determine the effect on detectable LPS.
Three 1x2 inch pieces of the dressing were spiked with endotoxin resulting in 8.9 EU of LPS. The pieces were allowed to dry for 20 minutes, then placed into 50 mL polypropylene conical tubes. 7.5 mL of LAL reagent water +2.5 mL 0.25M tris buffer was added to Tube 1. 10 mL of cyclohexane with 0.1 g of CaSt was added to Tube 2. 10 mL of cyclohexane was added to Tube 3. The tubes were closed and then placed on the bottle roller rotator machine for 15 minutes so that the tube could continuously roll and the dressing was constantly in contact with liquid.
Tube 1 solution was then diluted and tested for endotoxin on the MCS system. The fibrin pad pieces from Tube 2 and Tube 3 were removed and placed in new tubes and extracted in 7.5 mL of LAL reagent water + 2.5 mL 0.25M tris buffer. The solutions were then tested on the MCS system for endotoxin (LPS). Table 9. Results of testing of dressing in cyclohexane containing CaSt

[4] = 0.02 g CaSt, Sonicated, 5 Day dwell time

With CCCCCCCCCCCCCCCCCC(=O)O [Calcium Stearate] the “Average Percent Change” value [1, 4] was 76%, the “Percent Endotoxin Removed” value [1, 4] was 76% and the “EU After” value ([1]; 0.02 g CaSt, Sonicated, 5 Day dwell time, 15 minutes, EU Before 37,800) was 9,200 EU. The “Average Percent Change” value ([1]; 0.02 g CaSt, Sonicated, 90 min dwell time) was 61%, the “EU After” value ([1]; 0.02 g CaSt, Sonicated, 90 min dwell time, 15 minutes, EU Before 36,100, listed as Aged Sonicated CaSt #1) was 15120 EU and the “EU After” value ([1]; 0.02 g CaSt, Sonicated, 90 min dwell time, 15 minutes, EU Before 36,100, listed as Aged Sonicated CaSt #2) was 12,960 EU. The “Percent Endotoxin Removed” value ([1]; 0.02 g CaSt, Sonicated, 90 min dwell time, listed as Aged Sonicated CaSt #1) was 58%, the “Percent Endotoxin Removed” value ([1]; 0.02 g CaSt, Sonicated, 90 min dwell time, listed as Aged Sonicated CaSt #2) was 64% and the “Average Percent Change” value ([1]; 0.02 g CaSt, Sonicated, Immediate Mixing) was 74%. For the same compound, the “EU After” value ([1]; 0.02 g CaSt, Sonicated, Immediate Mixing, 15 minutes, EU Before 36,100, listed as Sonicated CaSt #1) was 8,960 EU, the “EU After” value ([1]; 0.02 g CaSt, Sonicated, Immediate Mixing, 15 minutes, EU Before 36,100, listed as Sonicated CaSt #2) was 10,240 EU and the “Percent Endotoxin Removed” value ([1]; 0.02 g CaSt, Sonicated, Immediate Mixing, listed as Sonicated CaSt #1) was 75%. The “Percent Endotoxin Removed” value ([1]; 0.02 g CaSt, Sonicated, Immediate Mixing, listed as Sonicated CaSt #2) was 72%, the “Average Percent Change” value ([1]; 0.02 g CaSt, Vortexed, 5 Day dwell time) was 64% and the “EU After” value ([1]; 0.02 g CaSt, Vortexed, 5 Day dwell time, 15 minutes, EU Before 37,800, listed as Aged Vortexed CaSt #3) was 15,120 EU. The “EU After” value ([1]; 0.02 g CaSt, Vortexed, 5 Day dwell time, 15 minutes, EU Before 37,800, listed as Aged Vortexed CaSt #4) was 12,160 EU, the “Percent Endotoxin Removed” value ([1]; 0.02 g CaSt, Vortexed, 5 Day dwell time, listed as Aged Vortexed CaSt #3) was 60% and the “Percent Endotoxin Removed” value ([1]; 0.02 g CaSt, Vortexed, 5 Day dwell time, listed as Aged Vortexed CaSt #4) was 68%. For the same compound, the “Average Percent Change” value ([1]; 0.02 g CaSt, Vortexed, 90 min dwell time) was 43%, the “EU After” value ([1]; 0.02 g CaSt, Vortexed, 90 min dwell time, 15 minutes, EU Before 36,100, listed as Aged Vortexed CaSt #1) was 22,400 EU and the “EU After” value ([1]; 0.02 g CaSt, Vortexed, 90 min dwell time, 15 minutes, EU Before 36,100, listed as Aged Vortexed CaSt #2) was 19280 EU. The “Percent Endotoxin Removed” value ([1]; 0.02 g CaSt, Vortexed, 90 min dwell time, listed as Aged Vortexed CaSt #1) was 38%, the “Percent Endotoxin Removed” value ([1]; 0.02 g CaSt, Vortexed, 90 min dwell time, listed as Aged Vortexed CaSt #2) was 47% and the “Average Percent Change” value ([1]; 0.02 g CaSt, Vortexed, Immediate Mixing) was 32%. The “EU After” value ([1]; 0.02 g CaSt, Vortexed, Immediate Mixing, 15 minutes, EU Before 36,100, listed as Aged Vortexed CaSt #1) was 29,200 EU, the “EU After” value ([1]; 0.02 g CaSt, Vortexed, Immediate Mixing, 15 minutes, EU Before 36,100, listed as Aged Vortexed CaSt #2) was 20,480 EU and the “Percent Endotoxin Removed” value ([1]; 0.02 g CaSt, Vortexed, Immediate Mixing, listed as Aged Vortexed CaSt #1) was 20%. For the same compound, the “Percent Endotoxin Removed” value ([1]; 0.02 g CaSt, Vortexed, Immediate Mixing, listed as Aged Vortexed CaSt #2) was 43%, the “EU After” value ([1]; 0.04 g CaSt, Sonicated, Immediate Mixing with 10 mL SRW, 15 minutes, EU Before 36,100, listed as Sonicated CaSt #1) was 5,320 EU and the “EU After” value ([1]; 0.04 g CaSt, Sonicated, Immediate Mixing with 10 mL SRW, 15 minutes, EU Before 36,100, listed as Sonicated CaSt #2) was 5,800 EU. The “Average Percent Change” value ([1]; 0.04 g CaSt, Sonicated, Immediate Mixing, 15 minutes) was 85%, the “Percent Endotoxin Removed” value ([1]; 0.04 g CaSt, Sonicated, Immediate Mixing, 15 minutes, listed as Sonicated CaSt #1) was 85% and the “Percent Endotoxin Removed” value ([1]; 0.04 g CaSt, Sonicated, Immediate Mixing, 15 minutes, listed as Sonicated CaSt #2) was 84%. For the same compound, the “Average Percent Change” value ([1]; 0.04 g CaSt, Sonicated, Mixing after 1 Month dwell time) was 50%, the “EU After” value ([1]; 0.04 g CaSt, Sonicated, Mixing after 1 Month dwell time, 15 minutes, EU Before 14650, listed as Aged Sonicated CaSt #1) was 7440 EU and the “EU After” value ([1]; 0.04 g CaSt, Sonicated, Mixing after 1 Month dwell time, 15 minutes, EU Before 14650, listed as Aged Sonicated CaSt #2) was 7240 EU. The “Percent Endotoxin Removed” value ([1]; 0.04 g CaSt, Sonicated, Mixing after 1 Month dwell time, listed as Aged Sonicated CaSt #1) was 49.2%, the “Percent Endotoxin Removed” value ([1]; 0.04 g CaSt, Sonicated, Mixing after 1 Month dwell time, listed as Aged Sonicated CaSt #2) was 50.6% and the “Average Percent Change” value ([1]; 0.04 g CaSt, Sonicated, Mixing after 5 Days dwell time) was 85%. The “EU After” value ([1]; 0.04 g CaSt, Sonicated, Mixing after 5 Days dwell time, 15 minutes, EU Before 37,800, listed as Aged Sonicated CaSt #3) was 5,040 EU, the “EU After” value ([1]; 0.04 g CaSt, Sonicated, Mixing after 5 Days dwell time, 15 minutes, EU Before 37,800, listed as Aged Sonicated CaSt #4) was 6,560 EU and the “Percent Endotoxin Removed” value ([1]; 0.04 g CaSt, Sonicated, Mixing after 5 Days dwell time, listed as Aged Sonicated CaSt #3) was 87%. The “Percent Endotoxin Removed” value ([1]; 0.04 g CaSt, Sonicated, Mixing after 5 Days dwell time, listed as Aged Sonicated CaSt #4) was 83%, the “Average Percent Change” value ([1]; 0.04 g CaSt, Sonicated, Mixing after 90 min dwell time) was 81% and the “EU After” value ([1]; 0.04 g CaSt, Sonicated, Mixing after 90 min dwell time, 15 minutes, EU Before 36,100, listed as Aged Sonicated CaSt #1) was 6168 EU. For the same compound, the “EU After” value ([1]; 0.04 g CaSt, Sonicated, Mixing after 90 min dwell time, 15 minutes, EU Before 36,100, listed as Aged Sonicated CaSt #2) was 8,000 EU, the “Percent Endotoxin Removed” value ([1]; 0.04 g CaSt, Sonicated, Mixing after 90 min dwell time, listed as Aged Sonicated CaSt #1) was 83% and the “Percent Endotoxin Removed” value ([1]; 0.04 g CaSt, Sonicated, Mixing after 90 min dwell time, listed as Aged Sonicated CaSt #2) was 78%. The “Average Percent Change” value ([1]; 0.04 g CaSt, Vortexed, Immediate Mixing) was 44%, the “EU After” value ([1]; 0.04 g CaSt, Vortexed, Immediate Mixing, 15 minutes, EU Before 36,100, listed as Aged Vortexed CaSt #1) was 19,840 EU and the “EU After” value ([1]; 0.04 g CaSt, Vortexed, Immediate Mixing, 15 minutes, EU Before 36,100, listed as Aged Vortexed CaSt #2) was 20480 EU. For the same compound, the “Percent Endotoxin Removed” value ([1]; 0.04 g CaSt, Vortexed, Immediate Mixing, listed as Aged Vortexed CaSt #1) was 45%, the “Percent Endotoxin Removed” value ([1]; 0.04 g CaSt, Vortexed, Immediate Mixing, listed as Aged Vortexed CaSt #2) was 43% and the “Average Percent Change” value ([1]; 0.04 g CaSt, Vortexed, Mixing after 5 Days dwell time) was 75%. The “EU After” value ([1]; 0.04 g CaSt, Vortexed, Mixing after 5 Days dwell time, 15 minutes, EU Before 37,800, listed as Aged Vortexed CaSt #3) was 9,080 EU, the “EU After” value ([1]; 0.04 g CaSt, Vortexed, Mixing after 5 Days dwell time, 15 minutes, EU Before 37,800, listed as Aged Vortexed CaSt #4) was 9,760 EU and the “Percent Endotoxin Removed” value ([1]; 0.04 g CaSt, Vortexed, Mixing after 5 Days dwell time, listed as Aged Vortexed CaSt #3) was 76%. The “Percent Endotoxin Removed” value ([1]; 0.04 g CaSt, Vortexed, Mixing after 5 Days dwell time, listed as Aged Vortexed CaSt #4) was 74%, the “Average Percent Change” value ([1]; 0.04 g CaSt, Vortexed, Mixing after 90 min dwell time) was 54% and the “EU After” value ([1]; 0.04 g CaSt, Vortexed, Mixing after 90 min dwell time, 15 minutes, EU Before 36,100, listed as Aged Vortexed CaSt #1) was 17,120 EU. For the same compound, the “EU After” value ([1]; 0.04 g CaSt, Vortexed, Mixing after 90 min dwell time, 15 minutes, EU Before 36,100, listed as Aged Vortexed CaSt #2) was 16,460 EU, the “Percent Endotoxin Removed” value ([1]; 0.04 g CaSt, Vortexed, Mixing after 90 min dwell time, listed as Aged Vortexed CaSt #1) was 53% and the “Percent Endotoxin Removed” value ([1]; 0.04 g CaSt, Vortexed, Mixing after 90 min dwell time, listed as Aged Vortexed CaSt #2) was 54%. For the same compound, the “Results (toxicity)” value ([2]; NC-2: 0.2 g Calcium Stearate in 5.0 mL normal saline, intraperitoneal, no endotoxin) was “No Toxicity Observed”, the “Results (toxicity)” value ([2]; T-1: 2,500,000 EU + 0.2g Calcium Stearate + normal saline (5.0 mL) dosed IP) was “No Toxicity Observed” and the “Results (toxicity)” value ([2]; T-1: 2,500,000 EU + 0.2g Calcium Stearate + normal saline (5.0 mL) dosed IP, listed as calcium stearate) was “no toxicity or adverse effects”. The “Results (toxicity)” value ([2]; T-2: 5,000,000 EU + 0.2g Calcium Stearate + normal saline (5.0 mL) dosed IP) was “No Toxicity Observed”, the “Results (toxicity)” value ([2]; T-2: 5,000,000 EU + 0.2g Calcium Stearate + normal saline (5.0 mL) dosed IP, listed as calcium stearate) was “no toxicity or adverse effects” and the “Percent Endotoxin detected as compared to Tube 1” value ([3]; Tube 1 = no cyclohexane, 8.9 EU) was 20.2%. The “Endotoxin detected on Pad (EU)” value [3] was 1.8 EU and the “Endotoxin detected on Pad (EU)” value ([3]; listed as CaSt) was 2 EU.
